This note sets out measurements from ChEMBL document CHEMBL1201862, “PubChem BioAssay data set” (2004).

Each structure is given as a SMILES string.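 1) Cells in 96-well plates. 2) Compound, 48 h, 5 concentrations. 3) Linear interpolation between surrounding doses. 4) Unreached endpoint = highest concentration. GI50 is the concentration that inhibits growth by half.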 Active and inactive are the calls of the source. Cut-off read from the data, not from the text of the source: active = GI50 up to about 1.1 µM and inactive = higher.

What is called GI50 is the concentration that inhibits growth by half.

Some test systems named below: BT-549; CCRF-CEM; COLO 205; HCT-116; HCT-15; HOP-62; HOP-92; IGROV-1; LOX IMVI; Malme-3M; NCI-H23; OVCAR-4; OVCAR-5; PC-3; SF-295; SK-MEL-2; SW-620; UACC-257; A498; MDA-MB-435.
What all share (assay): DTP human tumour cell line panel, 48 h

On to `CC1(C)OCC(COC(=O)NCn2cc(-c3ccccc3)nn2)O1` (stereo not drawn), for which the GI50 was > 100 µM (inactive) in the assay with BT-549; > 100 µM (inactive) with CCRF-CEM; > 100 µM (inactive) in the assay on COLO 205; > 100 µM (inactive) with HCT-116; above 100 µM in the assay on HCT-15; > 100 µM (inactive) in the assay on HOP-62. Also, the GI50 in the assay on HOP-92, with IGROV-1, in the assay on LOX IMVI, in the assay on Malme-3M, in the assay on NCI-H23 and with OVCAR-4 was > 100 µM (inactive) each time. Also, the GI50 with OVCAR-5, with PC-3, in the assay on SF-295, with SK-MEL-2, in the assay with SW-620 and in the assay on UACC-257 was > 100 µM (inactive) throughout.
`COC(=O)c1c2c(cc3c1CC1(Cc4cc5c(c(C=O)c4C1)CCCC5)C3)CCCC2` (stereo not drawn): the GI50 in the assay with A498 is 66.8 µM (inactive); in the assay with COLO 205, 20.7 µM (inactive); in the assay with HCT-116, 23.3 µM (inactive); with HCT-15, 34.4 µM; in the assay with HOP-62 it was 31.8 µM (inactive); in the assay on HOP-92, 56.6 µM (inactive). Further, the GI50 in the assay on IGROV-1 was 81.5 µM (inactive); in the assay with LOX IMVI, > 100 µM (inactive); with MDA-MB-435 it was > 100 µM (inactive); with Malme-3M it was > 100 µM (inactive); in the assay on NCI-H23 it was 57.9 µM (inactive); with OVCAR-4, 34.1 µM (inactive). Further, the GI50 is > 100 µM (inactive) in the assay on OVCAR-5; 40.5 µM (inactive) with PC-3; > 100 µM (inactive) with SF-295; 10.2 µM (inactive) in the assay with SK-MEL-2; 50.5 µM (inactive) with UACC-257.
For `c1cc2nnc1SCCSCCCSCCS2`, the GI50 with A498 was > 100 µM (inactive); in the assay on CCRF-CEM, > 100 µM (inactive); in the assay with COLO 205, > 100 µM (inactive); in the assay with HCT-116, > 100 µM (inactive); with HCT-15, above 100 µM; in the assay with HOP-62 it was 35.2 µM (inactive). For the same compound, the GI50 was 46.5 µM (inactive) in the assay on HOP-92; > 100 µM (inactive) in the assay with IGROV-1; > 100 µM (inactive) in the assay on LOX IMVI; > 100 µM (inactive) in the assay with MDA-MB-435; > 100 µM (inactive) in the assay with Malme-3M; > 100 µM (inactive) in the assay with NCI-H23. For the same compound, the GI50 in the assay with OVCAR-4 is 34.6 µM (inactive); in the assay on OVCAR-5 it was > 100 µM (inactive); with PC-3, > 100 µM (inactive); with SF-295 it was > 100 µM (inactive); in the assay on SK-MEL-2, > 100 µM (inactive); in the assay on SW-620 it was > 100 µM (inactive). Besides, in the assay on UACC-257, the GI50 was > 100 µM (inactive).
`C[C@@H](c1ccccc1)C(CC#N)[C@H]1CCC[C@]1(O)C#Cc1ccc2c(c1)OCO2` (stereo partly drawn): the GI50 is 19.8 µM (inactive) in the assay with A498; 14.8 µM (inactive) in the assay on CCRF-CEM; 18.2 µM (inactive) with COLO 205; 16 µM with HCT-15; 16.8 µM (inactive) in the assay on HOP-62; 14 µM (inactive) with HOP-92. The GI50 is 14.3 µM (inactive) with IGROV-1; 18.5 µM (inactive) in the assay on LOX IMVI; 16.6 µM (inactive) with MDA-MB-435; 15.8 µM (inactive) with Malme-3M; 17.7 µM (inactive) in the assay on NCI-H23; 15.8 µM (inactive) in the assay with OVCAR-4. The GI50 in the assay on OVCAR-5 is 16.6 µM (inactive); in the assay on PC-3 it was 15.9 µM (inactive); in the assay with SF-295, 18.1 µM (inactive); with SK-MEL-2 it was 17.6 µM (inactive); with SW-620, 17.9 µM (inactive); in the assay with UACC-257, 18.2 µM (inactive).
As to `COC1(OC)N=C(N)C2(C#N)/C(=N/N(C)C)CC(C)C12C#N` (stereo not drawn), the GI50 in the assay with A498 was > 100 µM (inactive); with CCRF-CEM it was > 100 µM (inactive); in the assay on COLO 205, > 100 µM (inactive); in the assay on HCT-116, > 100 µM (inactive); in the assay with HCT-15, above 100 µM; with HOP-62 it was > 100 µM (inactive). Moreover, the GI50 in the assay with HOP-92, in the assay with IGROV-1, with LOX IMVI, in the assay with MDA-MB-435, with Malme-3M and in the assay on NCI-H23 was > 100 µM (inactive) throughout. For the same compound, the GI50 in the assay on OVCAR-5, in the assay with PC-3, in the assay with SF-295, with SK-MEL-2, in the assay on SW-620 and with UACC-257 was > 100 µM (inactive) each time.
Take `CCCC[C@@H](C)/C=C1\CN2CCC[C@H]2[C@@](C)(O)[C@@H]1O`: the GI50 in the assay on A498 was > 100 µM (inactive); with CCRF-CEM, 12.3 µM (inactive); in the assay with COLO 205, > 100 µM (inactive); with HCT-15 it was above 100 µM; in the assay with HOP-62, 52.1 µM (inactive); with HOP-92, 17.2 µM (inactive). The GI50 is 51.6 µM (inactive) in the assay on IGROV-1; 22.8 µM (inactive) in the assay with LOX IMVI; 96.2 µM (inactive) in the assay with MDA-MB-435; > 100 µM (inactive) in the assay on Malme-3M; 32.9 µM (inactive) in the assay on NCI-H23; 21.9 µM (inactive) in the assay on OVCAR-4. The GI50 with OVCAR-5 was > 100 µM (inactive); in the assay on PC-3, > 100 µM (inactive); in the assay with SF-295, 55.7 µM (inactive); in the assay on SK-MEL-2, > 100 µM (inactive); in the assay with SW-620, > 100 µM (inactive); in the assay on UACC-257, > 100 µM (inactive).
Regarding `CNC(=S)N(C1CCCCC1)C1CCCCC1`, the GI50 was 33.1 µM (inactive) in the assay on CCRF-CEM; 66.1 µM (inactive) with COLO 205; 54 µM (inactive) in the assay with HCT-116; above 100 µM in the assay with HCT-15; > 100 µM (inactive) in the assay with HOP-62; 50.8 µM (inactive) in the assay on HOP-92. Besides, the GI50 with IGROV-1 was > 100 µM (inactive); with LOX IMVI it was > 100 µM (inactive); in the assay with MDA-MB-435, > 100 µM (inactive); in the assay on Malme-3M, 47 µM (inactive); in the assay with NCI-H23, 82.8 µM (inactive); in the assay with OVCAR-4 it was 90.6 µM (inactive). Also, the GI50 with OVCAR-5 was > 100 µM (inactive); in the assay with PC-3 it was 35.1 µM (inactive); with SF-295 it was 61.2 µM (inactive); in the assay with SK-MEL-2 it was 76.9 µM (inactive); with SW-620, > 100 µM (inactive); in the assay with UACC-257, 34.1 µM (inactive).
Consider `Cc1nn2c(C(=O)N/N=C/c3ccc([N+](=O)[O-])cc3)c(C)nc2s1`, for which the GI50 in the assay with A498 was > 100 µM (inactive); in the assay on BT-549, > 100 µM (inactive); in the assay with CCRF-CEM, > 100 µM (inactive); with COLO 205 it was > 100 µM (inactive); in the assay on HCT-116, > 100 µM (inactive); in the assay with HCT-15 it was above 100 µM. Also, the GI50 was 46.5 µM (inactive) in the assay with HOP-62; > 100 µM (inactive) with HOP-92; > 100 µM (inactive) with IGROV-1; > 100 µM (inactive) in the assay with LOX IMVI; > 100 µM (inactive) with MDA-MB-435; > 100 µM (inactive) in the assay on Malme-3M. In addition, the GI50 in the assay on NCI-H23, with OVCAR-4, with OVCAR-5, in the assay with SF-295, in the assay with SW-620 and in the assay on UACC-257 was > 100 µM (inactive) each time.
In the case of `COC(=O)C1=C(OC(=O)/C(=C/c2c(F)cccc2F)c2ccccc2)C(C(=O)OC)[C@@]2(O)[C@@H](C(=O)OC)[C@H](C)C[C@@H]1[C@@H]2C(=O)OC` (stereo partly drawn), the GI50 with BT-549 was > 100 µM (inactive); in the assay on CCRF-CEM, > 100 µM (inactive); in the assay on COLO 205, > 100 µM (inactive); in the assay with HCT-116, > 100 µM (inactive); in the assay with HCT-15, above 100 µM; in the assay with HOP-62 it was > 100 µM (inactive). Also, the GI50 with IGROV-1 is 59.4 µM (inactive); in the assay on LOX IMVI it was > 100 µM (inactive); with MDA-MB-435, > 100 µM (inactive); in the assay with Malme-3M it was 68.5 µM (inactive); in the assay on NCI-H23, > 100 µM (inactive); in the assay on OVCAR-4, > 100 µM (inactive). Moreover, the GI50 in the assay on OVCAR-5, in the assay with PC-3, with SF-295, in the assay on SK-MEL-2, with SW-620 and in the assay with UACC-257 was > 100 µM (inactive) throughout.
Take `[O-][S+](C(c1ccccc1)=P(c1ccccc1)(c1ccccc1)c1ccccc1)c1ccc(Cl)cc1` (stereo not drawn): the GI50 with A498 was 11.1 µM (inactive); in the assay with CCRF-CEM it was 20.9 µM (inactive); in the assay on HCT-116, 20.7 µM (inactive); in the assay on HCT-15 it was 34.9 µM; in the assay with HOP-62, 25.6 µM (inactive); in the assay with HOP-92, 13.1 µM (inactive). In addition, the GI50 in the assay with IGROV-1 was 21.8 µM (inactive); in the assay with LOX IMVI it was 20.6 µM (inactive); in the assay on MDA-MB-435, 11.7 µM (inactive); in the assay with NCI-H23, 26.7 µM (inactive); in the assay with OVCAR-4, 17.1 µM (inactive); with OVCAR-5 it was 41.9 µM (inactive). Besides, the GI50 in the assay on PC-3 is 23.2 µM (inactive); in the assay with SF-295, 33.7 µM (inactive); in the assay on SK-MEL-2, 20.8 µM (inactive); in the assay on SW-620 it was 23.6 µM (inactive); in the assay with UACC-257, 12.5 µM (inactive).
On to `Clc1ccc(-c2nnc(C34CC5CC(CC(C5)C3)C4)o2)cc1`, for which the GI50 was > 100 µM (inactive) in the assay on A498; > 100 µM (inactive) in the assay on CCRF-CEM; > 100 µM (inactive) in the assay on COLO 205; > 100 µM (inactive) in the assay with HCT-116; above 100 µM in the assay with HCT-15; > 100 µM (inactive) in the assay with HOP-62. For the same compound, the GI50 in the assay with HOP-92, in the assay on IGROV-1, in the assay with LOX IMVI, in the assay with MDA-MB-435, with Malme-3M and with NCI-H23 was > 100 µM (inactive) each time. The GI50 in the assay on OVCAR-4, in the assay on OVCAR-5, in the assay on PC-3, in the assay on SF-295, in the assay on SK-MEL-2 and in the assay with SW-620 was > 100 µM (inactive) throughout. The GI50 in the assay with UACC-257 is > 100 µM (inactive).
